Test results published in patent US20260263533A1, “COMBINATION OF BIFIDOBACTERIUM AND FUCOSYLATED HMO FOR USE IN INCREASING NMN OR NAD+” (DSM IP Assets B.V., priority 2022, published 2026).

Legend:
B. bifidum 32403 = experiment: BioLector growth on carbon sources; format: cell-based, Bifidobacterium bifidum; settings: for Ability to grow on carbon source: 1% carbon source in MRS without glucose, 37° C., up to 72 hours, anaerobic
Procedure: (§1) Initial overnight cultures in de Man, Rogosa, and Sharpe (MRS) medium with glucose (Merck, cat #110661) were prepared in an anaerobic chamber with mixed gas (90% N2, 5% CO2, and 5% H2) at 37° C. From the overnight cultures strains were subcultured 1:100 or 1:10 (if slow growing) into fresh MRS (with glucose) and grown to mid-log (without shaking) in the anerobic chamber at 37° C. For the carbohydrate utilization analysis, a BioLector (automated culturomics equipment, Biosciences) was used. Cells were inoculated 1:100 into MRS (without glucose, Liofilchem Cat #610144) in a 48 well MTP plate (Biosciences) containing 1% of one of the following carbon sources: glucose, lactose, a HMO mixture (containing 2′FL, 2′FL: DFL (range of 6:1-8:1), 3FL, 3′SL, 6′SL, LNnT and LNT in equal portions), HMO mixture+lactose or sterile DI water (as no sugar control) in a final volume of 2 mL and grown in the BioLector at 37° C. for up to 72 hours, shaking at 400 rpm under anaerobic conditions and continuous nitrogen gas flow. If a strain grew on the HMO mixture the experiment was repeated with the individual HMOs of the mixture as carbon source. Change in biomass, pH, and dissolved oxygen was monitored every 20 minutes by the BioLector. A minimum of two replicates were completed for each carbon source. Samples were transferred to a 96 deep-well plate, spun down at 4000 rpm for 10 min at 4° C., and supernatants removed for analysis or stored at −80° C. until further analysis.

B. infantis HA-116 [1] = experiment: Metabolomics of culture supernatants (NMN, NAD+); format: cell-based, Bifidobacterium infantis
Procedure: as §1, with “[…] Sample supernatants” for “Samples”, “analyzed using metabolomics by Metabolon (NC, USA).” for “transferred to a 96 deep-well plate, spun down at 4000 rpm for 10 min at 4° C., and supernatants removed for analysis or stored at −80° C. until further analysis.”

B. infantis R0033 [2] = experiment: Metabolomics of culture supernatants (NMN, NAD+); format: cell-based, Bifidobacterium infantis
Procedure: as §1, with “[…] Sample supernatants” for “Samples”, “analyzed using metabolomics by Metabolon (NC, USA).” for “transferred to a 96 deep-well plate, spun down at 4000 rpm for 10 min at 4° C., and supernatants removed for analysis or stored at −80° C. until further analysis.”

L. plantarum TIFN101 [3] = experiment: Metabolomics of culture supernatants (NMN, NAD+); format: cell-based, Lactobacillus plantarum
Procedure: as §1, with “[…] Sample supernatants” for “Samples”, “analyzed using metabolomics by Metabolon (NC, USA).” for “transferred to a 96 deep-well plate, spun down at 4000 rpm for 10 min at 4° C., and supernatants removed for analysis or stored at −80° C. until further analysis.”

B. bifidum HA-132 = experiment: BioLector growth on carbon sources; format: cell-based, Bifidobacterium bifidum; settings: 1% carbon source in MRS without glucose, 37° C., up to 72 hours, anaerobic
Procedure: as §1

L. reuteri DSM 12246 [4] = experiment: Metabolomics of culture supernatants (NMN, NAD+); format: cell-based, Lactobacillus reuteri
Procedure: as §1, with “[…] Sample supernatants” for “Samples”, “analyzed using metabolomics by Metabolon (NC, USA).” for “transferred to a 96 deep-well plate, spun down at 4000 rpm for 10 min at 4° C., and supernatants removed for analysis or stored at −80° C. until further analysis.”

B. infantis HA-116 [5] = experiment: BioLector growth on carbon sources; format: cell-based, Bifidobacterium infantis; design: key: +++: fast exponential growth reaching a plateau before 45 hours; ++: slower exponential growth reaching a plateau after 45 hours; +: slow almost linear growth, does not reach plateau during the time of fermentation; −: No significant growth for 50 h or more; settings: 1% carbon source in MRS without glucose, 37° C., up to 72 hours, anaerobic
Procedure: as §1

B. infantis R0033 [6] = experiment: BioLector growth on carbon sources; format: cell-based, Bifidobacterium infantis; design: key: +++: fast exponential growth reaching a plateau before 45 hours; ++: slower exponential growth reaching a plateau after 45 hours; +: slow almost linear growth, does not reach plateau during the time of fermentation; −: No significant growth for 50 h or more; settings: 1% carbon source in MRS without glucose, 37° C., up to 72 hours, anaerobic
Procedure: as §1

B. bifidum R0071 [7] = experiment: BioLector growth on carbon sources; format: cell-based, Bifidobacterium bifidum; design: key: +++: fast exponential growth reaching a plateau before 45 hours; ++: slower exponential growth reaching a plateau after 45 hours; +: slow almost linear growth, does not reach plateau during the time of fermentation; −: No significant growth for 50 h or more; settings: 1% carbon source in MRS without glucose, 37° C., up to 72 hours, anaerobic
Procedure: as §1

B. bifidum R0071 [8] = experiment: Metabolomics of culture supernatants (NMN, NAD+); format: cell-based, Bifidobacterium bifidum
Procedure: as §1, with “analysis. Sample supernatants were analyzed using metabolomics by Metabolon (NC, USA).” for “analysis.”

L. plantarum TIFN101 [9] = experiment: BioLector growth on carbon sources; format: cell-based, Lactobacillus plantarum; settings: FIG. 3C
Procedure: as §1, with “Samples were transferred to a 96 deep-well plate, spun down at 4000 rpm for 10 min at 4° C., and supernatants removed for analysis or stored at −80° C. until further analysis.” left out

L. reuteri DSM 12246 [10] = experiment: BioLector growth on carbon sources; format: cell-based, Lactobacillus reuteri; settings: FIG. 3B
Procedure: as §1, with “Samples were transferred to a 96 deep-well plate, spun down at 4000 rpm for 10 min at 4° C., and supernatants removed for analysis or stored at −80° C. until further analysis.” left out

Compound | Growth on carbon source (in words) (B. bifidum 32403; BioLector, FIG. 3A, FIG. 6) | NAD+ production compared with growth on lactose (in words) (B. infantis HA-116 [1]) | NAD+ production compared with growth on lactose (in words) (B. infantis R0033 [2]) | NAD+ production (in words) (L. plantarum TIFN101 [3]) | Ability to grow on carbon source (B. bifidum 32403) | Ability to grow on carbon source (B. bifidum HA-132) | NAD+ production (in words) (L. reuteri DSM 12246 [4]) | Ability to grow on carbon source (B. infantis HA-116 [5]) | Ability to grow on carbon source (B. infantis R0033 [6]) | Ability to grow on carbon source (B. bifidum R0071 [7]) | NAD+ production (in words) (B. bifidum R0071 [8]) | Growth on carbon source (in words) (L. plantarum TIFN101 [9]) | Growth on carbon source (in words) (L. reuteri DSM 12246 [10]) | NMN production (in words) (B. bifidum R0071 [8])
C[C@H](O)[C@@H](O)[C@@H](O)[C@H](O)C=O [L-fucose] | not able to grow |  |  |  |  |  |  |  |  |  |  |  |  | 
C[C@@H]1O[C@@H](O[C@H]2[C@H](O[C@H]3[C@H](O[C@@H]4O[C@@H](C)[C@@H](O)[C@@H](O)[C@@H]4O)[C@@H](O)C(O)O[C@@H]3CO)O[C@H](CO)[C@H](O)[C@@H]2O)[C@@H](O)[C@H](O)[C@@H]1O (some centres unmarked) [DFL, difucosyllactose] |  | a bit more | a bit more |  |  |  |  |  |  |  |  |  |  | 
OC[C@H]1O[C@@H](O[C@H]2[C@H](O)[C@@H](O)C(O)O[C@@H]2CO)[C@H](O)[C@@H](O)[C@H]1O (some centres unmarked) [Lactose, lactose] |  |  |  | able to produce NAD+ | +++ (fast exponential growth reaching a plateau before 45 hours) | ++ (slower exponential growth reaching a plateau after 45 hours) | able to produce NAD+ | +++ (fast exponential growth reaching a plateau before 45 hours) | +++ (fast exponential growth reaching a plateau before 45 hours) | +++ (fast exponential growth reaching a plateau before 45 hours) | able to produce NAD+ | capable of growing | capable of growing | 
CC(=O)N[C@H]1[C@H](O[C@H]2[C@@H](O)[C@@H](CO)O[C@@H](O[C@H]3[C@H](O)[C@@H](O)C(O)O[C@@H]3CO)[C@@H]2O)O[C@H](CO)[C@@H](O[C@@H]2O[C@H](CO)[C@H](O)[C@H](O)[C@H]2O)[C@@H]1O (mixture of isomers) [LNnT, lacto-N-neotetraose] |  |  |  |  | +++ (fast exponential growth reaching a plateau before 45 hours) | +++ (fast exponential growth reaching a plateau before 45 hours) |  | + | − | ++ (slower exponential growth reaching a plateau after 45 hours) |  |  |  | low amounts
CC(=O)N[C@H]1[C@H]([C@H](O)[C@H](O)CO)O[C@@](O[C@H]2[C@@H](O)[C@@H](CO)O[C@@H](O[C@H]3[C@H](O)[C@@H](O)C(O)O[C@@H]3CO)[C@@H]2O)(C(=O)O)C[C@@H]1O (some centres unmarked) [3′SL, 3′-sialyllactose] |  |  |  |  | +++ (fast exponential growth reaching a plateau before 45 hours) | +++ (fast exponential growth reaching a plateau before 45 hours) |  | − | − | − |  |  |  | 
CC(=O)N[C@H]1[C@H](O[C@H]2[C@@H](O)[C@@H](CO)O[C@@H](O[C@H]3[C@H](O)[C@@H](O)C(O)O[C@@H]3CO)[C@@H]2O)O[C@H](CO)[C@@H](O)[C@@H]1O[C@@H]1O[C@H](CO)[C@H](O)[C@H](O)[C@H]1O (some centres unmarked) [LNT, lacto-N-tetraose] |  |  |  |  | +++ (fast exponential growth reaching a plateau before 45 hours) | +++ (fast exponential growth reaching a plateau before 45 hours) |  | + | − | +++ (fast exponential growth reaching a plateau before 45 hours) |  |  |  | low amounts
CC(=O)N[C@H]1[C@H]([C@H](O)[C@H](O)CO)O[C@@](OC[C@H]2O[C@@H](O[C@H]3[C@H](O)[C@@H](O)[C@H](O)O[C@@H]3CO)[C@H](O)[C@@H](O)[C@H]2O)(C(=O)O)C[C@@H]1O [6′SL, 6′-sialyllactose] |  |  |  |  | +++ (fast exponential growth reaching a plateau before 45 hours) | +++ (fast exponential growth reaching a plateau before 45 hours) |  | − | − | − |  |  |  | 
